Assay results: ChEMBL document CHEMBL1125278, “Novel cerebroprotective agents with central nervous system stimulating activity. 2. Synthesis and pharmacology of the 1-(acylamino)-7-hydroxyindan derivatives” (1991)
“And” between values parts separate entries of the source, which are not always exact repeats. Equal values may be shown once.

Tests used:
[1] = system: Mus musculus; experiment: Antihypoxic effect tested by the ratio of survival time (SVT) of test mice to that of control group, dosed orally 30 mg/kg; assay type: functional; conditions: route oral
[2] = system: Mus musculus; experiment: Antihypoxic effect tested by the ratio of survival time (SVT) of test mice to that of control group, dosed intraperitoneally at 30 mg/kg; assay type: functional; conditions: route intraperitoneal
[3] = system: Mus musculus; experiment: Time of recovery of righting reflux (RRT) in seconds was measured after oral administration of 30 mg/kg in mice for the promotional effect on recovery from coma.; assay type: functional
[4] = system: Mus musculus; experiment: Spontaneous movement (SMT) in seconds, was measured after oral administration of 30 mg/kg in mice to test for promoting effects on recovery from coma.; assay type: functional
[5] = system: Mus musculus; experiment: Time of recovery of spontaneous movement (SMT) in seconds was measured after administration of 10 mg/kg orally in mice for the promotional effect on recovery from coma.; assay type: functional; conditions: route oral
[6] = system: Mus musculus; experiment: Antihypoxic effect by the ratio of survival time (SVT) of test mice to that of control group at a dose of 30 mg/kg administered subcutaneously.; assay type: functional; conditions: route subcutaneous
[7] = system: Mus musculus; experiment: Time of recovery of righting reflux (RRT) in seconds was measured after oral administration of 3 mg/kg in mice for the promotional effect on recovery from coma.; assay type: functional
[8] = system: Mus musculus; experiment: Compound was tested for the anesthetic effect and the sleeping time (ST) was recorded at a dose of 3 mg/kg administered subcutaneously.; assay type: functional; conditions: route subcutaneous
[9] = system: Mus musculus; experiment: Time of recovery of righting reflux (RRT) in seconds was measured after oral administration of 1 mg/kg in mice for the promotional effect on recovery from coma.; assay type: functional
[10] = system: Mus musculus; experiment: Time of recovery of spontaneous movement (SMT) in seconds was measured after administration of 1 mg/kg orally in mice for the promotional effect on recovery from coma.; assay type: functional; conditions: route oral
[11] = system: Mus musculus; experiment: Antihypoxic effect by the ratio of survival time (SVT) of test mice to that of control group at a dose of 10 mg/kg administered intraperitoneally.; assay type: functional; conditions: route intraperitoneal
[12] = system: Mus musculus; experiment: Time of recovery of spontaneous movement (SMT) in seconds was measured after administration of 3 mg/kg orally in mice for the promotional effect on recovery from coma.; assay type: functional; conditions: route oral
[13] = system: Mus musculus; experiment: Antihypoxic effect by the survival time (SVT) in mice at a dose of 3 mg/kg administered intraperitoneally.; assay type: functional; conditions: route intraperitoneal
[14] = system: Mus musculus; experiment: Time of recovery of righting reflux (RRT) in seconds was measured after oral administration of 10 mg/kg in mice for the promotional effect on recovery from coma.; assay type: functional
[15] = system: Mus musculus; experiment: Antihypoxic effect by the survival time (SVT) in mice at a dose of 30 mg/kg administered intraperitoneally.; assay type: functional; conditions: route intraperitoneal
[16] = system: Mus musculus; experiment: Antihypoxic effect by the survival time (SVT) in mice at a dose of 30 mg/kg administered orally.; assay type: functional
[17] = system: Mus musculus; experiment: Antihypoxic effect by the ratio of survival time (SVT) of test mice to that of control group at a dose of 100 mg/kg administered intraperitoneally.; assay type: functional
[18] = system: Mus musculus; experiment: Compound was tested for the anesthetic effect and the sleeping time (ST) was recorded at a dose of 3 mg/kg administered orally.; assay type: functional
[19] = system: Mus musculus; experiment: Time of recovery of spontaneous movement (SMT) in seconds was measured after administration of 0.3 mg/kg orally in mice for the promotional effect on recovery from coma.; assay type: functional; conditions: route oral
[20] = system: Mus musculus; experiment: Time of recovery of righting reflux (RRT) in seconds was measured after administration of 1 mg/kg orally in mice for the promotional effect on recovery from coma.; assay type: functional; conditions: route oral
[21] = system: Mus musculus; experiment: Time of recovery of righting reflux (RRT) in seconds was measured after administration of 3 mg/kg orally in mice for the promotional effect on recovery from coma.; assay type: functional; conditions: route oral
[22] = system: Mus musculus; experiment: Compound was tested for the anesthetic effect and the sleeping time (ST) was recorded at a dose of 10 mg/kg administered orally.; assay type: functional
[23] = system: Mus musculus; experiment: Time of recovery of righting reflux (RRT) in seconds was measured after administration of 0.3 mg/kg orally in mice for the promotional effect on recovery from coma.; assay type: functional; conditions: route oral
[24] = system: Mus musculus; experiment: Compound was tested for the anesthetic effect and the sleeping time (ST) was recorded at a dose of 1 mg/kg administered orally.; assay type: functional
[25] = system: Mus musculus; experiment: Time of recovery of righting reflux (RRT) in seconds was measured after intraperitoneal administration of 30 mg/kg in mice for the promotional effect on recovery from coma.; assay type: functional
[26] = system: Mus musculus; experiment: Antihypoxic effect by the survival time (SVT) in mice at a dose of 10 mg/kg administered intraperitoneally.; assay type: functional; conditions: route intraperitoneal
[27] = system: Mus musculus; experiment: Antihypoxic effect by the survival time (SVT) in mice at a dose of 100 mg/kg administered orally.; assay type: functional
[28] = system: Mus musculus; experiment: Time of recovery of righting reflux (RRT) in seconds was measured after administration of 100 mg/kg orally in mice for the promotional effect on recovery from coma.; assay type: functional
[29] = system: Mus musculus; experiment: Antihypoxic effect by the survival time (SVT) in mice at a dose of 100 mg/kg administered intraperitoneally.; assay type: functional; conditions: route intraperitoneal
[30] = system: Mus musculus; experiment: Time of recovery of spontaneous movement (SMT) in seconds was measured after intraperitoneal administration of 30 mg/kg in mice for the promotional effect on recovery from coma.; assay type: functional
[31] = system: Mus musculus; experiment: Time of recovery of righting reflux (RRT) in seconds was measured after intraperitoneal administration of 10 mg/kg in mice for the promotional effect on recovery from coma.; assay type: functional
[32] = system: Mus musculus; experiment: Time of recovery of spontaneous movement (SMT) in seconds was measured after administration of 100 mg/kg orally in mice for the promotional effect on recovery from coma.; assay type: functional
[33] = system: Mus musculus; experiment: Time of recovery of righting reflux (RRT) in seconds was measured after intraperitoneal administration of 100 mg/kg in mice for the promotional effect on recovery from coma.; assay type: functional
[34] = system: Mus musculus; experiment: Antihypoxic effect by the ratio of survival time (SVT) of test mice to that of control group at a dose of 100 mg/kg administered orally.; assay type: functional, organism-based; set-up: dose 100 mg/kg

Compound	SVT [1]	SVT [2]	RRT [3]	SMT [4]	further results
CCC(C)c1cc(C)c2c(c1O)C(NC(=O)CN1CCN(c3cccc(OC)c3)CC1)CC2 (stereo unspecified)	162.3%	218.5%	99.1 s	103.5 s	
Cc1cc(C)c2c(c1O)C(N)C(C)(C)C2 (stereo unspecified)	142.1%	298.1%	37.2 s	42 s	SMT [5]: 62.5 s; SVT [6]: 298.2%; RRT [7]: 66.2 s; ST [8]: 112 s and 82.1 s and 76.1 s; RRT [9]: 62.8 s; SMT [10]: 92.3 s; SVT [11]: 217%; SMT [12]: 105.8 s; SVT [13]: 156.2%; RRT [14]: 54.8 s
CCC(C)c1cc(C)c2c(c1O)C(NC(=O)CN1CCN(c3cccc(Cl)c3Cl)CC1)CC2 (stereo unspecified)	119.2%	122.4%	98 s	117.4 s	
CCC(C)c1cc(C)c2c(c1O)C(NC(=O)CN1CCN(c3cccc(C)c3)CC1)CC2 (stereo unspecified)	110.5%	172.2%	91.9 s	125.1 s	
Cc1cc(C)c2c(c1O)C(N)C(c1ccccc1)C2 (stereo unspecified)	114.1%	185.7%	34.3 s	28.9 s	
Cc1cc(C)c2c(c1O)C(NC(=O)CN1CCN(c3cccc(Cl)c3)CC1)C(C)(C)C2 (stereo unspecified)	147.9%	456.6%	88.4 s	128.1 s	
CCC(C)c1cc(C)c2c(c1O)C(N)CC2 (stereo unspecified)	166.5%		44.2 s	48.9 s	SVT [6]: 276.5%
CCCCCCCCCCC(=O)NC1CCc2c(C)cc(C)c(O)c21 (stereo unspecified)					SVT [15]: 94.5%
CCC(C)c1cc(C)c2c(c1O)C(NC(=O)CN1CCN(c3cccc(Cl)c3)CC1)C(C)(C)C2 (stereo unspecified)		147.7%	99.4 s	80.3 s	
Cc1cc(C)c2c(c1O)C(NC(=O)CN1CCN(c3cccc(Cl)c3)CC1)CC2 (stereo unspecified)			72.1 s	77.4 s	SVT [16]: 99.2%; SVT ([17]; route intraperitoneal): 168.9%
Cc1cc(C)c2c(c1O)C(NCCN1CCN(c3cccc(Cl)c3)CC1)C(C)(C)C2 (stereo unspecified)		141.3%	64.8 s	59.9 s	
COc1cccc(N2CCN(CC(=O)NC3c4c(O)c(C)cc(C)c4CC3(C)C)CC2)c1 (stereo unspecified)	135.4%		48.3 s	46 s	ST [18]: 84.8 s; SMT [19]: 66.5 s; RRT [20]: 58 s; SVT ([2]; 30 mg/kg): 169.1% and 206.7%; RRT [21]: 43.6 s; ST [22]: 71.4 s; RRT [23]: 72.7 s; SMT [10]: 56.2 s; SVT [11]: 176.4%; SMT [12]: 45.3 s; SVT [13]: 153.5%; ST [24]: 92.7 s
COc1cccc(N2CCN(CCNC3c4c(O)c(C)cc(C)c4CC3(C)C)CC2)c1 (stereo unspecified)		120.8%	110 s	112.1 s	
CCC(C)c1cc(C)c2c(c1O)C(NC(=O)CN1CCN(c3cc(Cl)cc(Cl)c3)CC1)CC2 (stereo unspecified)	113.2%	139.4%	114 s	100.6 s	
Cc1cc(C)c2c(c1O)C(NC(=O)CCN1CCN(c3cccc(Cl)c3)CC1)C(C)(C)C2 (stereo unspecified)		79.5%	95.4 s	74 s	
Cc1cc(C)c2c(c1O)C(NC(=O)CCl)CC2 (stereo unspecified)					SVT [15]: 116.4%
Cc1cc(C)c2c(c1O)C(NC(=O)CN1CCOCC1)C(C)(C)C2 (stereo unspecified)		104.3%	106.9 s	92.2 s	
Cc1cc(C(C)(C)C)c(O)c(C(C)(C)C)c1 [BUTYLATED HYDROXYTOLUENE]					RRT [25]: 74.5 s; SVT [26]: 140.3%; SVT [27]: 87.6%; RRT ([28]; route oral): 69.6 s; SVT [29]: 358.8% and 583.9%; SMT [30]: 110.4 s and 114.7 s and 115.7 s; RRT [31]: 96.4 s; SVT [15]: 109.4%; SMT ([32]; route oral): 80.9 s; RRT [33]: 98.7 s
CCC(C)c1cc(C)c2c(c1O)C(NC(=O)CN1CCN(c3ccccc3)CC1)CC2 (stereo unspecified)	85.9%	89.3%	80.3 s	78.2 s	
Cc1cc(C)c2c(c1O)C(NC(=O)CN1CCCC1)C(C)(C)C2 (stereo unspecified)		134.2%	85.8 s	66.4 s	
CCC(C)c1cc(C)c2c(c1O)C(NC(=O)CN1CCN(c3cccc(Cl)c3)CC1)CC2 (stereo unspecified)	144.5%	224.8%	90.6 s	81.9 s	
Cc1cc(C)c2c(c1O)C(NC(=O)CN1CCCC1=O)C(C)(C)C2 (stereo unspecified)		135.3%	89.2 s	88.8 s	
VITAMIN E					SVT [34]: 178%; RRT [28]: 92.2 s; SVT [17]: 96.7%; SMT [32]: 83.5 s
